Assay results from patent publication US20070037886A1, “Bone marrow erythroid progenitor cell(s) differentiation inducer” (priority 2005, published 2007).
Entries after “also recorded” stand apart in the source; their conditions may differ. Positions of bridges follow the written chain, without caps; N, C: chain ends. No end group written: not given here.

Key:
[1] = tested on: mouse bone marrow cells (CFU-E); experiment: in vitro mouse CFU-E colony assay (methyl cellulose semi-solid medium, with rHuEPO); assay type: cell-based
Protocol: In the case of oral administration to rats, the blood arginine concentration reaches about 600 μM by a single-dose administration of arginine at 1.2 g/kg. Therefore, it is expected that the number of CFU-E increases in a dose-dependent manner by such an oral administration. Also in humans, it is expected that the number of CFU-E increases as the concentration of arginine in the blood increases by the oral administration.
An in vitro mouse CFU-E colony assay was carried out in accordance with the following method. After a female BDF-1 mouse at 10 weeks of age (Charles River Japan, Inc.) was killed by the cervical dislocation method, bone marrow cells were isolated from the femur and suspended in an IMDM medium (Invitrogen) containing 10% FCS (JRH Bioscience Inc). The bone marrow cells were centrifuged at 1500 rpm for 10 minutes at 4° C. and the precipitated bone marrow cells were resuspended in an amino acid-free IMDM medium and the number of cells was measured. […] Then, the number of CFU-E colonies was measured using an inverted microscope. […]
In the graph, * indicates P<0.05. The data is expressed as a mean value±SEM. […]

[2] = tested on: mouse bone marrow cells (CFU-E); experiment: CFU-E colony assay with EPO mimetic peptide EMP1; assay type: cell-based
Protocol: After a female BDF-1 mouse at 10 weeks of age (Charles River Japan, Inc.) was killed by the cervical dislocation method, bone marrow cells were isolated from the femur and suspended in an IMDM medium (Invitrogen) containing 10% FCS (JRH Bioscience Inc). The bone marrow cells were centrifuged at 1500 rpm for 10 minutes at 4° C. and the precipitated bone marrow cells were resuspended in an amino acid-free IMDM medium and the number of cells was measured. To a dish with a diameter of 3.5 cm (Nalgen Nunc, Inc. International), 1 ml of a methyl cellulose semi-solid medium in which the bone marrow cells were suspended {30 μM EMP1, 100 μM 2-mercaptoethanol (Wako Pure Chemical Industries, Ltd.), 24% FCS (JRH Bioscience Inc.), 0.8% methyl cellulose (methyl cellulose containing IMDM solution […], Stem Cell Technologies, Inc.), 2% BSA (SIGMA-ALDRICH Japan K.K.), 1×10^5 cells/ml of bone marrow cells} containing arginine at a concentration of 170 μM was added (which is equal to an IMDM medium whose concentration of the amino acid composition is one-third and which includes FCS at 24%). […] Then, the number of CFU-E colonies was measured using an inverted microscope. […] The data is expressed as a mean value ±SEM. […]

normal rats = details: repeated administration; cited from earlier work

| Compound | number of CFU-E colonies ([1]; arginine 600 μM vs 170 μM, 1 IU/ml rHuEPO, 48 hours, per 2.2×10^5 bone marrow cells, P<0.05) | combined effect of arginine with EPO on CFU-E ([1]; arginine concomitantly with a sufficient amount of EPO) | number of CFU-E colonies ([2]; arginine 770 μM vs 170 μM, 30 μM EMP1, 48 hours, P<0.05) | amount of hemoglobin (normal rats) | amount of red blood cells (normal rats) | amount of EMP1 for the highest action (CFU-E colonies) ([2]; same condition as FIG. 2A, FIG. 2B) |
| --- | --- | --- | --- | --- | --- | --- |
| N=C(N)NCCC[C@H](N)C(=O)O [arginine] | increased the number of CFU-E; also recorded: further increases CFU-E; also recorded: significantly increases | synergistic effect | increased the number of CFU-E | increased | increased |  |
| GGTYSCHFGPLTWVCKPQGG-NH2 (disulfide 6-15; N-terminus assumed; SMILES CC(C)C[C@@H]1NC(=O)[C@@H]2CCCN2C(=O)CNC(=O)[C@H](Cc2ccccc2)NC(=O)[C@H](Cc2c[nH]cn2)NC(=O)[C@@H](NC(=O)[C@H](CO)NC(=O)[C@H](Cc2ccc(O)cc2)NC(=O)[C@@H](NC(=O)CNC(=O)CN)[C@@H](C)O)CSSC[C@@H](C(=O)N[C@@H](CCCCN)C(=O)N2CCC[C@H]2C(=O)N[C@@H](CCC(N)=O)C(=O)NCC(=O)NCC(N)=O)NC(=O)[C@H](C(C)C)NC(=O)[C@H](Cc2c[nH]c3ccccc23)NC(=O)[C@H]([C@@H](C)O)NC1=O) [EMP1, EPO mimetic peptide described in Science, vol; 273, pp. 458-463 (1996), reference compound] |  |  |  |  |  | ≥ 10 µM |
